Literature values in US20050182029A1, “Metformin salts of lipophilic acids” (Sonus Pharmaceuticals, Inc., priority 2002, published 2005).

Legend:
[1] = healthy human subjects

## CN(C)C(=N)N=C(N)N [metformin]
Controlled clinical trials, even at maximum doses
  maximum metformin plasma levels (Cmax): ≤ 4000 ng/mL
Usual metformin doses and dosing schedules, reached within 24 to 48 hours
  steady-state plasma concentration: less than 1 ug/mL
[1]
  colonic absorption: poor colonic absorption
